Data published in US12583817B2, “Ionizable lipids and compositions and uses thereof” (Massachusetts Institute of Technology, priority 2021, dated 2026).
“Also recorded” adds a separate entry of the source.

How the values were obtained:
[1] = system: mouse lung; assay: Nebulized FFL mRNA delivery to mice, lung bioluminescence (IVIS); assay type: in vivo, C57BL/6 mice; settings: for Nebulized lung delivery compared between lipids/NPs: 1 mg dose via nose cone, 6 hr, T1-5 formulated with bPEG20K and NaAc; for In vivo performance via nebulization vs C12-200: 1 mg mRNA dose (FIG. 6A); for Nebulized delivery in NaAc buffer with bPEG20K vs PBS with no excipient: T1-5 LNPs
Protocol: In vivo nebulized delivery. In vivo nebulized delivery of mRNA to C57BL/6 mice (Jackson Laboratory) was performed either in a whole-body exposure chamber or a nose-only exposure chamber (CH Technologies) where specified. LNPs at 0.3 mg/mL of mRNA were loaded into the nebulizer at required volumes with 2% w/v excipients where specified. For the whole-body exposure chamber, the nebulizer was connected to the chamber via a tee and an oxygen flow rate of 15 SCFH was used to direct aerosol into the chamber. For the nose-only exposure chamber, mice were immobilized in restrainers and the restrainers connected to the chamber. A flow rate of 2 SLPM of oxygen was used and pressure within the chamber was maintained at −0.1 din. H2O.
In vivo bioluminescence, 6 h after nebulization, unless otherwise noted, mice were injected intraperitoneally with 0.2 ml XenoLight D-luciferin (10 mg/mL in DPBS, PerkinElmer). For whole-body imaging, mice were anesthetized in a ventilated anesthesia chamber with 2.5% isofluorane in oxygen and imaged 10 min after luciferin injection. Otherwise, mice were sacrificed 10 min after luciferin injection and organs were collected for imaging. Luminescence was measured with an in vivo imaging system (IVIS, PerkinElmer) and quantified using the Living Image software (PerkinElmer).

[2] = system: nose; assay: Nebulized FFL mRNA delivery to mice, luminescence in nose; assay type: in vivo
[3] = Toxicity study after repeat nebulized dosing (weight, serum ALT/AST); assay type: in vivo, mice; settings: repeated nebulized delivery
Protocol: (FIG. 6A). […] To determine whether the protein expression in the lung could be controlled by nebulized dose, a dose-response study of the three LNPs was performed, whereby mice were nebulized with 0.25, 0.5, or 1 mg of mRNA. For all three LNPs, there was an increase in lung luminescence corresponding to increasing dose (FIG. 14A). […] For mRNA protein-replacement therapies to treat pulmonary diseases like cystic fibrosis, repeat dosing of the therapeutic will be required unless genome editing is possible. Therefore, the ability to repeat-dose nebulized LNPs was characterized by administration of 1 mg of FFL mRNA every 72 h, with measurement of lung luminescence 6 h after each nebulization. For all LNPs, no loss in lung luminescence was observed over the course of the three administrations (FIG. 6B). Additionally, repeated delivery of the nebulized LNPs was well tolerated as evidenced by the lack of weight loss (FIG. 27) and normal liver enzyme levels (FIG. 14B) in mice.
Toxicity study, 48 h after the third nebulization of FFL mRNA in the repeat dosing study, mice were bled and sera was isolated using microcentrifugation in BD SST microtainers. Serum was analyzed for ALT and AST levels (Custom lipid panel 62149, IDEXX Bioanalytics).

[4] = system: ALI cultures derived from primary human bronchial epithelial cells; settings: for mRNA delivery in small and large airway ALI cultures, lipids and tail/headgroup variants: handmixed LNPs, not nebulized; for mRNA delivery to small airway ALI cultures: screen of 12 top-performing A549 LNPs
Protocol: Air-liquid interface (ALI) cultures derived from primary human bronchial epithelial cells were selected. ALI cultures are grown on porous Transwell inserts such that, upon reaching confluence, media can be removed from the top (apical) side of the insert and the cells can be fed from the bottom, basolateral, side (FIG. 12A). This enables recapitulation of the conditions of the native bronchial epithelium, where the apical side of the cells is exposed to the air while the basolateral side is bathed in nutrients.
Primary large airway cells (University of North Carolina at Chapel Hill MLI Tissue Procurement and Cell Culture Core) and primary small airway cells (ATCC) were expanded using PneumaCult-ExPlus (StemCell) according to the instructions for the media and plated for ALI cultures at P3 and P4 respectively.
ALI cultures were plated either onto 0.4 μm pore, 6.5 mm diameter PET Transwell inserts for 24-well plates (Corning) or 0.4 μm pore polycarbonate inserts for 96-well plates (Corning). The 24-well plates were used for histology, the two-week transfection timecourse, and TEER measurements; 96-well plates were used for all other experiments, 33,000 cells/well were seeded in the 24 well inserts and 15,000 cells/well were seeded in the 96-well plate inserts.
Per manufacturer instructions, cultures were grown to confluence with both apical and basolateral (ExPlus) media for 2-4 days before airlift. […] Upon airlift, apical media was removed and basolateral media was changed to PneumaCult-ALI (for large airway cells) or ALI-S (for small airway cells) media (StemCell). […] Media was changed 3 times/week and cells were not transfected until at least 20 days of ALI culture.
In vitro transfection experiments. […] The next day. […] For ALI cultures.

[5] = LNP size by DLS before and after nebulization; assay type: physicochemical; settings: nebulized in the presence of bPEG20K and NaAc buffer
Protocol: Nebulization of nanoparticles. For characterizing effects of nebulization on LNP size, encapsulation efficiency, and transfection efficiency, 100 uL of LNPs at 150 ng/uL were loaded into an Aeroneb vibrating mesh nebulizer (Aerogen) and nebulized into 1.5 mL microcentrifuge tubes. Where specified, 2% w/v of excipients were added to the LNP formulation following dialysis and immediately prior to nebulization.

[6] = system: A549 cells; assay: In vitro FFL mRNA transfection of A549 cells (Bright-Glo); settings: microfluidically mixed, nebulized with bPEG20K and NaAc
[7] = system: lung epithelium; assay: Nebulized Cre mRNA delivery to Ai14 mice, histology count of tdTomato+ airway cells
[8] = nebulized, 1 mg dose, nose cone
[9] = Cre mRNA nebulized over 3 doses
[10] = all cells, Cre mRNA nebulized over 3 doses

With `CCCCCCCC/C=C\CCCCCCCC(=O)OCCCCCC(O)C(CCCCOC(=O)CCCCCCC/C=C\CCCCCCCC)CN(C)CCCn1cccn1` (stereo not drawn) [IR-19-Py, 5-(((3-(1H-pyrazol-1-yl)propyl)(methyl)amino)methyl)-6-hydroxyundecane-1,11-diyl dioleate] as the compound, how does the “Nebulized lung delivery compared between lipids/NPs” value [1] read?
Its value is “statistically comparable delivery to C12-200”.

What about the “In vivo performance via nebulization vs C12-200” value [1] of the same compound?
Its value is “performed comparably to C12-200”.

What about the “Nebulized delivery in NaAc buffer with bPEG20K vs PBS with no excipient” value [1] of the same compound?
The value was “improves nebulized delivery of both LNPs compared to PBS”.

What about the “Protein expression / mRNA delivery in the nose” value [2] of the same compound?
Its value is “significantly outperform state-of-the-art mRNA delivery formulations; also recorded: particularly high and extended protein expression was observed in the nose”.

And the “Tolerability of nebulized LNPs” value [3]?
The value was “no apparent toxicity”.

What about the “mRNA delivery in small and large airway ALI cultures, lipids and tail/headgroup variants” value [4] of the same compound?
Its value is “outperformed other screened lipids in ALI cultures”.

And the “mRNA delivery to small airway ALI cultures” value [4]?
Its value is “excellent performance”.

With `CCCCC/C=C\C/C=C\CCCCCCCC(=O)OCCCCCC(O)C(CCCCOC(=O)CCCCCCC/C=C\C/C=C\CCCCC)CNCCCN(CCCC)CCCC` (stereo not drawn) [IR-117-17, 5-(((3-(dibutylamino)propyl)amino)methyl)-6-hydroxyundecane-1,11-diyl (9Z,9′Z,12Z,12′Z)-bis(octadeca-9,12-dienoate)] as the compound, how does the “Nebulized lung delivery compared between lipids/NPs” value [1] read?
The value was “significantly outperform state-of-the-art mRNA delivery formulations; also recorded: significantly outperformed C12-200”.

What about the “In vivo performance via nebulization vs C12-200” value [1] of the same compound?
The value was “outperformed C12-200”.

And the Lung luminescence ([1]; 6 hr after 1 mg dose via nose cone, lipids T1-5 formulated with bPEG20K and NaAc)?
The Lung luminescence was 1.1×10^6 p s^−1 cm^−2 sr^−1.

What about the “Nebulized delivery in NaAc buffer with bPEG20K vs PBS with no excipient” value [1] of the same compound?
The value was “improves nebulized delivery of both LNPs compared to PBS”.

And the “Fold improvement of IR-117-17 lung mRNA delivery over NLD1” value [1, 8]?
The value was 300 fold.

What about the “Improvement of IR-117-17 lung mRNA delivery over polymeric PBAE nanoparticle” value [1, 8] of the same compound?
The value was “twofold; also recorded: two-fold”.

And the “Average diameter after nebulization” value [5]?
Its value is 116 nm.

What about the “Tolerability of nebulized LNPs” value [3] of the same compound?
Its value is “no apparent toxicity”.

And the “mRNA delivery in small and large airway ALI cultures, lipids and tail/headgroup variants” value [4]?
Its value is “outperformed other screened lipids in ALI cultures”.

What about the “mRNA delivery to small airway ALI cultures” value [4] of the same compound?
Its value is “excellent performance”.

What about the “FFL delivery to A549 cells, post-nebulized LNPs” value [6] of the same compound?
Its value is “effective”.

What about the “Small airways with at least 1 transfected cell” value ([7]; 140/151 airways) of the same compound?
Its value is 93%.

And the “Club cells transfected, large airway” value [7, 9]?
The value was 8.4%.

What about the “Club cells transfected, small airway” value [7, 9] of the same compound?
Its value is 7.6%.

What about the “Transfection of large airway cells (average)” value [7, 10] of the same compound?
Its value is 10.3%.

What about the “Transfection of small airway cells (average)” value [7, 10] of the same compound?
The value was 8.8%.

What about the “Transfection of individual stretches of airway” value ([7]; some stretches) of the same compound?
The value was “near-complete transfection”.
